# From patent publication US9173898B2, “Methods of treating giardiasis” (THE UNITED STATES OF AMERICA, as represented by the …, priority 2010, dated 2015)
# Counter-ions that a name gives are not always drawn. Like-named read-outs stand apart in the source and are kept apart here.
# Assays:
# Giardia WB = test: Giardia viability (ATP content) assay in 1536-well format; format: cell-based, Giardia lamblia; conditions: for IC50: concentration at which 50% of DMSO control ATP levels are detected, 48 hours, 1536-well; for Giardia WB Efficacy / Emax: percent reduction in ATP levels compared with 38.3 mM Mnz at maximal compound concentration; for Emax: 48 h, read-out: Giardia WB Efficacy
# Experimental: (§1) For the viability assay in 1536-well format, 2 μL media was dispensed per well into 1536-well white solid-bottom plates using a Multidrop Combi dispenser (Thermo Scientific). Subsequently, 23 nL/well compound solutions or DMSO controls were dispensed to the assay plates containing media via a pintool workstation (Kalypsys, San Diego). Trophozoites were chilled on ice to detach from glass tubes, and unless otherwise noted, were diluted to 250,000 trophozoites/mL with ice cold media. The trophozoite suspension was kept on ice and dispensed as 4 μL/well with the Multidrop Combi dispenser. Attachment of trophozoites to dispensing apparatus was avoided with continuous dispensing and icing of the trophozoite suspension. The plates were covered with plastic low-evaporation lids, individually sealed in Type A Bio-Bags and incubated at 37° C. for 48 hours. Following incubation, 4 μL/well of ATPLite reagent was dispensed with the Multidrop Combi dispenser. The assay plates were briefly centrifuged at 1000 RPM and luminescence signal was detected on a ViewLux plate reader (PerkinElmer) after 20 min incubation at room temperature. Signal-to-basal (S/B) ratio, Z′ factor and coefficient of variation (CV) were calculated from 32 wells with 0.38% DMSO (total signal) and 32 well with 38.3 μM Mnz (basal signal).
# Assay miniaturization in 1,536-well plate format was undertaken to increase throughput and facilitate screening of large compound libraries. The volume of trophozoites suspension was reduced to 6 μL/well and the ATP detection reagent was reduced to 4 μL/well in the 1536-well assay plates. […] The 100 trophozoites/well density was selected for further experiments to reduce the preparation work of Giardia cultures. Following these conditions, a DMSO test plate was used to assess the statistical parameters of the assay in the 1,536-well plate format.
# Using the above established conditions in 1536-well format, each compound of the invention was tested at 5 concentration points, ranging from 61 nM-38.3 μM in a 1:5 dilution ratio (Inglese, J., D. S. Auld, A. Jadhav, R. L. Johnson, A. Simeonov, A. Yasgar, W. Zheng, and C. P. Austin. 2006. Quantitative high-throughput screening: a titration-based approach that efficiently identifies biological activities in large chemical libraries. Proc Natl Acad Sci USA 103:11473-8).
# CHO cells [1] = test: CHO cell cytotoxicity assay in 1536-well format (ATP content counter-screen); format: cell-based, Chinese hamster; conditions: concentration at which 50% of DMSO control ATP levels are detected, 48 hours
# Experimental: For the viability assay in 1536-well format, 2 μL media was dispensed per well into 1536-well white solid-bottom plates using Multidrop Combi dispenser. Subsequently, 23 nL/well compound solutions or DMSO controls were dispensed to the assay plates via a pintool workstation. The Chinese hamster ovary (CHO) cells were grown in T225 flasks to 70% confluence under a standard cell culture condition (ATCC), detached with 0.25% Trypsin/EDTA, and seeded at 250 cells/well in 4 μL media (Dulbecco's Modified Eagle Medium, 10% fetal bovine serum, 1× penicillin/streptomycin). The plates were incubated at 37° C. with 5% CO2 and 95% humidity for 48 hours. Subsequently, ATP content was measured following the addition of 4 μL/well of ATPLite reagent and a 20 min incubation on a ViewLux plate reader.
# Data from the CHO cell counter-screen underwent the same initial analysis, with the exception that raw luminescence counts were normalized relative to DMSO only wells (0% activity) and 38.3 μM camptothecin treated wells (100% activity).
# CHO cells, commonly used in high throughput compound screening, were selected to determine the cytotoxicity of the compounds towards a mammalian cell line.
# G. lamblia GS isolate = test: ATP content assay against G. lamblia GS isolate; format: cell-based, Giardia lamblia; conditions: Table 2, screen, read-out: Giardia GS IC50
# Experimental: as §1
# As a further confirmatory step, some compounds that were commercially available were purchased as powder samples and tested against the G. lamblia GS isolate using both the ATP content and enumeration assays (Table 3).
# [2] = tested on: Giardia lamblia GS isolate; test: Minimum Lethal Concentration (MLC) determination; format: cell-based; conditions: 3 days with compound, then 3 days regrowth without compound, tube without any live organisms
# Experimental: Giardia lamblia GS isolate was used throughout the Minimal Lethal Concentration (MLC) experiments. Organisms were grown and maintained in TYI-S-33 medium supplemented with bile and antibiotics (Keister, 1983). Cidal activity was determined in 96-well culture plates (Corning Incorporated) followed by Giardia trophozoites regrowth in 8 ml tubes (Fisher Scientific). Dry compounds were dissolved in DMSO (Sigma) at stock concentration of 10 mM and then added to the growth media to ensure final DMSO concentration of no more than 0.5%. 100 μl of the compound solutions were placed in the wells by serial dilutions. 10 μl of Giardia trophozoites containing 10000 organisms were then added. Serial dilutions of metronidazole served as the positive control and the DMSO-containing medium served as the negative control. Plates were incubated under anaerobic conditions in sealed bags (Becton Dickinson and Company) at 37° C. for 3 days and surveyed visually under microscope to check survival, mobility and attachment of trophozoites. The plate was chilled on ice for 30 min and the entire contents of 4 wells in the growth/death transition were transferred into the 8 ml tubes containing growth media only (without the compound). After 3 days of incubation at 37° C., tubes were checked under microscope for any surviving trophozoites. MLC was attributed to the tube without any live organisms. See, e.g., Keister, D. B. 1983. Axenic culture of Giardia lamblia in TYI-S-33 medium supplemented with bile. Trans. Soc. Trop. Med. Hyg. 77:487-488.
# CHO cells [3] = test: CHO cell cytotoxicity assay in 1536-well format (ATP content counter-screen); format: cell-based, Chinese hamster; conditions: for CHO Efficacy: percent reduction in ATP levels compared with 38.3 mM camptothecin at maximal compound concentration; for Emax: Cricetulus griseus, CHO, 48 h, percent reduction in ATP levels compared with 38.3 µM camptothecin at maximal compound concentration, read-out: CHO Efficacy
Compound,IC50 (Giardia WB) [nM],Giardia WB Efficacy (Giardia WB) [%],IC50 (CHO cells [1]) [nM],IC50 (G. lamblia GS isolate) [nM],MBC [2] [µM],CHO Efficacy (CHO cells [3]) [%],Emax (Giardia WB; Giardia) [%],IC50 (Giardia WB; Giardia) [nM],"IC50 (CHO cells [1]; Cricetulus griseus, CHO) [nM]",IC50 (G. lamblia GS isolate; Giardia duodenalis) [nM],"MBC ([2]; Giardia duodenalis, 72 h) [µM]",Emax (CHO cells [3]) [%]
O=[N+]([O-])c1ccc(/C=N/O)o1 [Nifuroxime],460,97.1,41000,1000,1.54,−50.3,–,–,–,–,–,–
CC(=O)Nc1ncc([N+](=O)[O-])s1 [Nithiamide],–,–,–,–,–,–,94.6,580,> 100000,317,4.63,25.9
COC(=O)Nc1nc2ccc(C(=O)c3cccs3)cc2[nH]1 [Nocodazole],–,–,–,–,–,–,86.7,183,370,–,0.15,54.4
CCCCc1ccc2[nH]c(NC(=O)OC)nc2c1 [Parbendazole],–,–,–,–,–,–,90.2,312,440,–,–,60.3
Oc1cc(O)cc(/C=C/c2ccc(O)c(O)c2)c1 [Piceatannol],–,–,–,–,–,–,81.3,3260,> 100000,3560,13.9,-16.6
Oc1ccc(/C=C\c2cc(O)cc(O)c2)cc1 [Resveratrol],–,–,–,–,–,–,80.7,4940,39200,–,> 208,22.2
CCCC(=O)OCC(OC(=O)CCC)C(OC(=O)CCC)C(Cn1c2nc(=O)[nH]c(=O)c-2nc2cc(C)c(C)cc21)OC(=O)CCC (stereo not drawn) [Riboflavin Butyrate],–,–,–,–,–,–,95.7,1090,> 100000,1130,41.7,20.3
O=C(Nc1ncc([N+](=O)[O-])s1)c1cccs1 [Tenonitrozol],–,–,–,–,–,–,93.1,290,> 100000,–,1.54,21.5
"CN(C)C(=S)SSC(=S)N(C)C [Tetramethylthiur am disulfide, tetramethylthiuram disulfide]",–,–,–,–,–,–,97.6,5160,520,–,–,97.6
CCCOc1ccc2nc(NC(=O)OC)sc2c1 [Tioxidazole],–,–,–,–,–,–,90.9,1460,> 100000,634,1.54,34.9
CC[C@]1(O)C[C@@H]2C[N@@](CCc3c([nH]c4ccccc34)[C@@](C(=O)OC)(c3cc4c(cc3OC)N(C)[C@H]3[C@@](O)(C(=O)OC)[C@H](OC(C)=O)[C@]5(CC)C=CCN6CC[C@]43[C@@H]65)C2)C1 [Vinblastine sulfate],–,–,–,–,–,–,90.1,1450,100,–,–,64.1
Amlexanox,2590,92.4,3260,–,>41.7,89.3,–,–,–,–,–,–
"Bortezomib [Bortezomib (S,R)]",70,92.8,10,–,–,36.2,–,–,–,–,–,–
